Read-outs that look alike come from different tables or passages of the source.
What was measured:
ULK1 kinase = biological target: T1, ULK1 kinase (Homo sapiens, UniProt O75385); experiment: ULK kinase activity inhibition assay (ADP-Glo); type: biochemical
T1 sequence (O75385 1-1050): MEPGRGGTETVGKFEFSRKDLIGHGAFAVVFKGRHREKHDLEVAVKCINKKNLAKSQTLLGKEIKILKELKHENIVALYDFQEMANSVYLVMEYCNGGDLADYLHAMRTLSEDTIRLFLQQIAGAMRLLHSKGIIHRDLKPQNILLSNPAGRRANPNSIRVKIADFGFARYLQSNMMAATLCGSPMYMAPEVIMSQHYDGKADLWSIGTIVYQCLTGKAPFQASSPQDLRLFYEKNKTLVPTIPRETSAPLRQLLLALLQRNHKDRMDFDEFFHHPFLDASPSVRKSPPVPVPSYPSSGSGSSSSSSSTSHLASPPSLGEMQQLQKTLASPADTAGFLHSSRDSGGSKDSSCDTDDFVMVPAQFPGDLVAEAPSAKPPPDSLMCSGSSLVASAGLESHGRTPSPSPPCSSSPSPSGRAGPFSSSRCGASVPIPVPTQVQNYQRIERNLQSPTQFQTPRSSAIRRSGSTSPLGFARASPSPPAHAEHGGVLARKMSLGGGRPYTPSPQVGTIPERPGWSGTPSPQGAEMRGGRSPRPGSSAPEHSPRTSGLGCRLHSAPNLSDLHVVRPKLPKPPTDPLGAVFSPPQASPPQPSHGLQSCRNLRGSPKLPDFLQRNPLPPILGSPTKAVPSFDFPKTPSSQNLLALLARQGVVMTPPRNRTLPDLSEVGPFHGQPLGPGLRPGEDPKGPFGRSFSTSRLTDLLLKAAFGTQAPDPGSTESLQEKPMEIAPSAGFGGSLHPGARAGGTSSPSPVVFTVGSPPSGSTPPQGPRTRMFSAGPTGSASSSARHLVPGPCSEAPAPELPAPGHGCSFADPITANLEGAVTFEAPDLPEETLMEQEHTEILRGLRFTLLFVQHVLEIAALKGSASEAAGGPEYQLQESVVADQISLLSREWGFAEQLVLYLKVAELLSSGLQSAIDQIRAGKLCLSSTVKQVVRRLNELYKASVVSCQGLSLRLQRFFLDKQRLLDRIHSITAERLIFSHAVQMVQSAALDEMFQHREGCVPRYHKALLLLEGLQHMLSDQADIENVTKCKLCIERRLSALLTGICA
Description: (§1) The ADP-Glo method was used to evaluate the inhibitory activity of the compounds against ULK1 and ULK2 kinases. Prepare 1× kinase reaction buffer (final working concentrations: HEPES 50 mM, MgCl2 10 mM, Brij35 0.01%, EGTA 1 mM, DTT 2 mM). Prepare 2× kinase and […] substrate solutions: ULK1 kinase at 0.5 nM; substrate mix containing ATP at 100 µM and MBP at 0.1 mg/mL. ULK2 kinase at 0.15 nM; substrate mix containing ATP at 6 µM and MBP at 0.1 mg/mL. Compounds were serially diluted in DMSO and shaken on a shaker for 20 minutes. Prepare 2× kinase using 1× kinase reaction buffer. Transfer 20 nL of compound into a 384-well plate. Add 2 µL of kinase to each well of the reaction plate. Seal the plate with sealing film, centrifuge at 1000 rpm for 60 seconds, and incubate at 25°C for 10 minutes. Prepare 2× ATP & MBP mixture using 1× kinase reaction buffer and add 2 µL to each well. Seal the plate, centrifuge at 1000 rpm for 60 seconds, and incubate at 25°C for 60 minutes. Add 4 µL ADP-Glo reagent to the 384-well plate, centrifuge at 1000 rpm for 1 minute, and incubate at 25°C for 40 minutes. Then, add 8 µL Detection Reagent, centrifuge at 1000 rpm for 1 minute, and incubate at 25°C for 40 minutes. Read the RLU (Relative Luminescence Unit) signal using a BMG plate reader to indicate kinase activity. Inhibition rate was calculated as: % Inhibition = 100% - [(Compound - Positive Control)/(Negative Control - Positive Control)] × 100%. IC50 values (half-maximal inhibitory concentration) were calculated by nonlinear regression using GraphPad Prism 7.0. Y = Bottom + (Top - Bottom)/(1 + 10^((LogIC50 - X) × Hill Slope)), where X is the log of compound concentration and Y is the % inhibition.

ULK2 kinase = biological target: T2, ULK2 kinase (Homo sapiens, UniProt Q8IYT8); experiment: ULK kinase activity inhibition assay (ADP-Glo); type: biochemical
T2 sequence (Q8IYT8 1-1036): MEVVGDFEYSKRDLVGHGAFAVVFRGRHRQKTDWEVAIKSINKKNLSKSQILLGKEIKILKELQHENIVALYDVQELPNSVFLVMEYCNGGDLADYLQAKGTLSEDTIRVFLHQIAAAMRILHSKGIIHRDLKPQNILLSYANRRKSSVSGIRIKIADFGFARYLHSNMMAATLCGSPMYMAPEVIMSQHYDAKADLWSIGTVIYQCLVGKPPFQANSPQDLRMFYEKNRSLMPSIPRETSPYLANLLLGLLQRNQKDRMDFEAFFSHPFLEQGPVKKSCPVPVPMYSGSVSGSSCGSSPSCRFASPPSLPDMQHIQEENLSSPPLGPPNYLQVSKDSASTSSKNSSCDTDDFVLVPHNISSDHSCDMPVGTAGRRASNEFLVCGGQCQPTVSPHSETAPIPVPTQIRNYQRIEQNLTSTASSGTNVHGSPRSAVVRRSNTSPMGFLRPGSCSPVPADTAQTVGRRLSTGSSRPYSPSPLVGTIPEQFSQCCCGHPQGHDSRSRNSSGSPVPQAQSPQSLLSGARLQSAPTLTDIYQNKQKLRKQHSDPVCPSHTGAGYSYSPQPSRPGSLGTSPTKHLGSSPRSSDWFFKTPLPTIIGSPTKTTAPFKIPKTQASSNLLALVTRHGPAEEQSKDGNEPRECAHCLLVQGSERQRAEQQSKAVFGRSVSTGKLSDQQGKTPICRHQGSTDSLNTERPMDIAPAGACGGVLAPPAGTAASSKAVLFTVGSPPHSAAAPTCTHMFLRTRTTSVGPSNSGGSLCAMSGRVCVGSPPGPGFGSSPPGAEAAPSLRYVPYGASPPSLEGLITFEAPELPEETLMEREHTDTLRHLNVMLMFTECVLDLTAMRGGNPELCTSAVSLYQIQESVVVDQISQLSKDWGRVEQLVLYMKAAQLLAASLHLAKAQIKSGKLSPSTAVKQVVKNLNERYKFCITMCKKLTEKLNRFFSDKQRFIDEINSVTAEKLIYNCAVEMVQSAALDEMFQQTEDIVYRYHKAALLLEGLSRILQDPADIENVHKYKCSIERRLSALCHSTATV
Description: as §1

[1] = Pharmacokinetic study in rats; conditions: rat, plasma, po, 3 mg/kg
FAK kinase = FAK kinase (Homo sapiens, UniProt Q05397); experiment: FAK kinase activity inhibition assay, method A (HTRF); type: biochemical
Chain of FAK kinase (Q05397 whole entry): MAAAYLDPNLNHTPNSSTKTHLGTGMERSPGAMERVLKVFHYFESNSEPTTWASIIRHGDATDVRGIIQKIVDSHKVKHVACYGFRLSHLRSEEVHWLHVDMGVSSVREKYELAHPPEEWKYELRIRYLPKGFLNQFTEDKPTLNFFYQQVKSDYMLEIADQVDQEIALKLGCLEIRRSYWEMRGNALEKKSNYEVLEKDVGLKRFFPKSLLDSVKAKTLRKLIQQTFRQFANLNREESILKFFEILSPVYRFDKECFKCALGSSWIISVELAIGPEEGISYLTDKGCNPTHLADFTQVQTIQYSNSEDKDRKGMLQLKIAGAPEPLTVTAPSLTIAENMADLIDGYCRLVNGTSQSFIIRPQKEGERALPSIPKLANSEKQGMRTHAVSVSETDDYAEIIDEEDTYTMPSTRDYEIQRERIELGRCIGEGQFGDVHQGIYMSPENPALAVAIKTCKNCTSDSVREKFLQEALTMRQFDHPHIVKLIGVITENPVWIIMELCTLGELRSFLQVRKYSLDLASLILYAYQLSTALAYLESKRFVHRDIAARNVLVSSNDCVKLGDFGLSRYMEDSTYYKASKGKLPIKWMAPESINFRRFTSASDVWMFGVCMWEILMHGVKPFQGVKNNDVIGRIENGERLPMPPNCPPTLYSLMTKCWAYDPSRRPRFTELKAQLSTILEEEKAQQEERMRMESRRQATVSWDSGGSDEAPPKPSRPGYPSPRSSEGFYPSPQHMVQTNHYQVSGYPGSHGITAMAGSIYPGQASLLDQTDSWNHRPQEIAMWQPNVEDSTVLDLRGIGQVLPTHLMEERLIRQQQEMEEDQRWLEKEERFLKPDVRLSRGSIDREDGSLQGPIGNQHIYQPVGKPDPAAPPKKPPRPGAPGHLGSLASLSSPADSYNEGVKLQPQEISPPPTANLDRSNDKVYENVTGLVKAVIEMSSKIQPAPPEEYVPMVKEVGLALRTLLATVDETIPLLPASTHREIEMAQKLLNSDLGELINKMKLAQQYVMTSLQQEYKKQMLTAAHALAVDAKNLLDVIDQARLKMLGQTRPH
Description: The HTRF method was used to evaluate the inhibitory activity of the compounds against FAK kinase. […]. The reaction conditions were: FAK kinase at 0.1 ng/µL; ATP 10 µM; substrate concentration 1 µM. Compounds were serially diluted in DMSO and shaken on a shaker for 20 minutes. Prepare 2× kinase using 1× reaction buffer. Transfer 25 nL compound to a 384-well plate using Echo 655. Add 2.5 µL kinase per well. Seal the plate with sealing film, centrifuge at 1000 rpm for 60 seconds, and incubate at 25°C for 12 hours. Prepare 2× ATP/substrate mix using 1× enzyme reaction buffer and add 2.5 µL 2× ATP/substrate mix per well. Seal the plate with sealing film, centrifuge at 1000 rpm for 60 seconds, and incubate at 25°C for 50 minutes. Prepare 2×XL665 & antibody solution using HTRF detection buffer, and add 5 µL per well. Incubate at 25°C for 60 minutes. Read fluorescence at 620 nm (Cryptate) and 665 nm (XL665). Calculate the ratio per well (Ratio_665/620 nm). % Inhibition = 100% - [(Compound Ratio - Positive Control Ratio)/ (Negative Control Ratio - Positive Control Ratio)] × 100%. IC50 values (half-maximal inhibitory concentration) were calculated by nonlinear regression using GraphPad Prism 7.0. Y = Bottom + (Top - Bottom)/ (1 + 10^ ((LogIC50 - X) × Hill Slope)), where X is the log of compound concentration and Y is the % inhibition.

[2] = ADP-Glo, ATP 100 µM, read-out: ULK1 (IC50)
[3] = ADP-Glo, ATP 6 µM, read-out: ULK2 (IC50)

SMILES	IC50 (ULK1 kinase; [2])	IC50 (ULK2 kinase; [3])	AUC(0-t) at 24 h [1]	Cmax [1]	Tmax [1]	half-life [1]	IC50 (ULK1 kinase)	IC50 (ULK2 kinase)	IC50 (FAK kinase)
CCc1cc2c(cc1Nc1ncc(C(F)(F)F)c(NCCCN3CCOCCC3=O)n1)OC[C@H]1CN(C)CCN21 [Compound A1R]	< 3 nM	< 1 nM	326 ng·h/mL	74.2 ng/mL	1.2 h	90 min	–	–	–
CCc1cc2c(cc1Nc1ncc(C(F)(F)F)c(NCCCN3CCOCCC3=O)n1)OC[C@H]1CN(C3CCN(C)CC3)CCN21 [Compound A2R]	–	–	1940 ng·h/mL	149 ng/mL	8 h	528 min	< 3 nM	< 5 nM	–
CCc1cc2c(cc1Nc1ncc(C(F)(F)F)c(NCCCN3CCOCCC3=O)n1)OC[C@H]1CN(C3CCOCC3)CCN21 [Compound A3R]	–	–	1040 ng·h/mL	223 ng/mL	1.2 h	84 min	< 3 nM	< 1 nM	–
CCc1cc2c(cc1Nc1ncc(C(F)(F)F)c(NCCCN3CCOCCC3=O)n1)OC[C@H]1CNCCN21 [Compound A4R]	< 1 nM	< 1 nM	880 ng·h/mL	217 ng/mL	1.2 h	126 min	–	–	–
CCc1cc2c(cc1Nc1ncc(C(F)(F)F)c(NCCCN3CCCCC3=O)n1)OC[C@H]1CNCCN21 [Compound A5R]	< 1 nM	< 1 nM	–	–	–	–	–	–	–
CCc1cc2c(cc1Nc1ncc(C(F)(F)F)c(NCCCN3CCCCC3=O)n1)OC[C@H]1CN(C3CCN(C)CC3)CCN21 [Compound A6R]	–	–	1080 ng·h/mL	77.3 ng/mL	6.7 h	498 min	< 3 nM	< 5 nM	–
CCc1cc2c(cc1Nc1ncc(C(F)(F)F)c(NCCCN3CCCCC3=O)n1)OC[C@H]1CN(C3CCOCC3)CCN21 [Compound A7R]	–	–	–	–	–	–	< 3 nM	< 1 nM	–
CCc1cc2c(cc1Nc1ncc(C(F)(F)F)c(NCCCN3CCCCC3=O)n1)OC[C@H]1CN(C)CCN21 [Compound A8R]	< 1 nM	< 1 nM	685 ng·h/mL	222 ng/mL	0.8 h	60 min	–	–	–
CCN1CCN2c3cc(OC)c(Nc4ncc(C(F)(F)F)c(CCc5ccccc5CC(N)=O)n4)cc3OC[C@H]2C1 [Compound B5R]	–	–	685 ng·h/mL	118 ng/mL	2 h	168 min	–	–	< 0.5 nM
COc1cc2c(cc1Nc1ncc(C(F)(F)F)c(CCc3ccccc3CC(N)=O)n1)OC[C@H]1CN(C3CC3)CCN21 [Compound B6R]	–	–	905 ng·h/mL	299 ng/mL	1 h	78 min	–	–	< 1 nM
COc1cc2c(cc1Nc1ncc(C(F)(F)F)c(CCc3ccccc3CC(N)=O)n1)OC[C@H]1CN(C(C)=O)CCN21 [Compound B7R]	–	–	1430 ng·h/mL	390 ng/mL	2 h	72 min	–	–	< 0.5 nM
COc1cc2c(cc1Nc1ncc(C(F)(F)F)c(CCc3ccccc3CC(N)=O)n1)OC[C@H]1CN(S(C)(=O)=O)CCN21 [Compound B8R]	–	–	133 ng·h/mL	39.3 ng/mL	1.7 h	90 min	–	–	< 0.5 nM
COc1cc2c(cc1Nc1ncc(C(F)(F)F)c(CCc3ccccc3CC(N)=O)n1)OC[C@H]1CN(C3CN(C)C3)CCN21 [Compound B9R]	–	–	368 ng·h/mL	61.8 ng/mL	3.3 h	156 min	–	–	< 0.5 nM

Reference: patent EP4653444A1, “FUSED TRICYCLIC COMPOUND AS KINASE INHIBITOR” (Hangzhou Innogate Pharma Co., Ltd., priority 2023, dated 2024)
